Earlier results, collected in US7459460B2, “Trisubstituted heteroaromatic compounds as calcium sensing receptor modulators” (Bristol-Myers Squibb Company, priority 2003, dated 2008).

Assays:
[1] = intravenous bolus injection
[2] = OVX rats, oral administration, in the presence of an anti-resorptive agent
[3] = postmenopausal women, placebo-controlled trial

| Compound | serum PTH [1] | bone mass [2] | reduce the risk of non-traumatic, non-spine fractures [3] [%] | reduce the risk of spine fractures [3] [%] |
| --- | --- | --- | --- | --- |
| CC(C)(Cc1ccc2ccccc2c1)NC[C@@H](O)COc1cccc(Cl)c1C#N [NPS-2143] | transient increase in serum PTH | increase in bone mass |  |  |
| PTH peptide fragment (1-34): the PTH peptide fragment (1-34) of parathyroid hormone (SVSEIQLMHNLGKHLNSMERVEWLRKKLQDVHNF; Parathyroid hormone; UniProt P01270 32-65, looked up, fragment) |  |  | 54 | 65 |
